Test results: EP4335452A1, “PHARMACEUTICAL COMPOSITION FOR ENHANCING ANTICANCER EFFECT OF ANTICANCER DRUG” (L-Base Co., Ltd., priority 2021, dated 2024)
Ends that are not written are not given here.

Key:
[1] = tested on: lung cancer cell line H1975; test: MTT assay, cell viability, lung cancer cell line H1975; type: cell-based; conditions: 48 hours
[2] = tested on: lung cancer cell line H1975; test: as above; type: cell-based; conditions: Ac-AQTGTGKT 10 µM alone, 48 hours, FIG. 1C
Experimental: (§1) Specifically, cells were seeded at 2 × 10^3/100 µl per well on a 96-well plate, and after culturing for 24 hours, the compound according to the present invention was administered; 4 hours later, anticancer drugs were treated to each cancer cell. The treatment concentration and treatment time of the compound and anticancer drug are specifically described in the embodiment. After completing the treatment of the compound and anticancer drug, CellTiter-96® reagent (Promega Co., USA) was reacted at 5% CO2, 37°C after adding 10 µl per well. After 3 hours, absorbance was measured at 490 nm using a spectrophotometer (SPECTROstar^Nano, BMG).

[3] = tested on: breast cancer cell line HCC1937; test: MTT assay, cell viability, breast cancer cell line HCC1937; type: cell-based; conditions: Olaparib 2.5 µM alone, 24 hours, FIG. 4B
[4] = tested on: H820 lung cancer cell line; test: Heterotransplant lung cancer animal model (H820), tumor growth; type: in vivo; conditions: H820 nude mice; Osimertinib single administration, 2.5 mpk orally daily; FIG. 6A
Experimental: The test substances were administered intravenously and orally 7 times at 2-day intervals.
Nude mice transplanted with H820 lung cancer cell line, an animal model of lung cancer described in the "Experimental Materials and Methods," was treated 7 times at a two-day interval for 14 days with 3-PhPh-[…] at a dose of 10 mpk, and Osimertinib was orally administered daily at 2.5 mpk. Then, the growth of the tumor was compared.

H1975 cell line = test: Heterotransplant lung cancer resistance animal model (H1975), tumor growth after Osimertinib resistance; type: in vivo, Balb/C nude mice
Experimental: H1975 cells were mixed with matrigel in a 1:1 ratio at a concentration of 5 × 10^6 cells/mouse, and each was subcutaneously inoculated at 200µl into the flank of the mouse once. After the inoculation, it was confirmed that the volume of the formed tumor reached 70~130 mm^3, and then random grouping was carried out. After the grouping, Osimertinib was administered orally every day, and after the growth of the tumor was inhibited, the point of re-growth was identified and the co-administration with the test substance was started. The test substances were administered intravenously 7 times at 2-day intervals.
After inoculating the H1975 cell line in 4-week-old female Balb/C nude mice, the presence and growth of the tumor were observed and the short and long axes of the tumor were measured to calculate the volume. When the volume of the tumor reached 70-120 mm^3, the groups were randomly separated and PBS, the negative control group, and Osimertinib at 5 mpk were orally administered daily.
The first day of administration was set as day 1, and the volume of the tumor was measured twice a week.

H1975/OR = test: MTT assay, cell viability, H1975/OR; type: cell-based; conditions: Osimertinib 2.5 µM alone, 68 hours, FIG. 1G
Experimental: as §1

Nc1nc2[nH]cc(CCc3ccc(C(=O)N[C@@H](CCC(=O)O)C(=O)O)cc3)c2c(=O)[nH]1 [Alimta, Alimta (Pemetrexed)]
cell viability decreased compared to the control group ([1]; Alimta 0.2 µM alone, FIG. 1E): about 6%

Ac-AQTGTGKT
cell viability decreased compared to the control group [2]: about 14%

O=C(c1cc(Cc2n[nH]c(=O)c3ccccc23)ccc1F)N1CCN(C(=O)C2CC2)CC1 [Olaparib]
decrease in cell viability compared to the control group [3]: no decrease in cell viability

C=CC(=O)Nc1cc(Nc2nccc(-c3cn(C)c4ccccc34)n2)c(OC)cc1N(C)CCN(C)C [Osimertinib]
cell viability decreased compared to the control group ([1]; Osimertinib 1 µM alone, FIG. 1B): about 5% | tumor growth reduced compared to the control group (PBS administered group) [4]: 46% | size of the tumor on the day of termination of administration (average) (H1975 cell line; H1975, after Osimertinib resistance, Osimertinib 5 mpk orally daily + PBS intravenously at a two-day interval, FIG. 6B): 692.6 mm^3 | tumor viability rate (tumor size on the 28th day versus the last measured tumor size) (H1975 cell line; H1975 Balb/C nude mice, Osimertinib 5 mpk orally daily, regrowth from the 24th day, judged as acquired resistance): over 50% | cell viability decreased compared to the control group (H1975/OR): about 7%
